The record followed here is PubChem BioAssay (NCI).

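Where inhibition never reached the appropriate level, the endpoint shown equals the highest concentration tested. Otherwise, values were interpolated linearly from a five-concentration, 48-hour dose response in 96-well plates. TGI: concentration producing complete growth inhibition.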

Some test systems named below: ACHN renal; HCT-116 colon; HL-60(TB) leukemia; HOP-62 NSCLC; HOP-92 NSCLC; HT29 colon; IGROV1 ovarian; KM12 colon; MDA-MB-231 breast; MDA-N; NCI-H226 lung; SK-MEL-5 melanoma; SNB-75 CNS; TK-10 renal; UACC-62 melanoma.
Assay in all cases: NCI anticancer screen, dose series, 48 h

As to `COC(=O)c1c2c(cc3c1CC1(C3)Cc3ccc4c(c3C1=O)CCC4)CCC2` (stereo not given), the TGI in the assay with ACHN renal was more than 31.6 µM; in the assay on HCT-116 colon, more than 62.2 µM; in the assay with HL-60(TB) leukemia, more than 28.3 µM; in the assay on HOP-62 NSCLC, more than 30 µM; with HOP-92 NSCLC, more than 70.6 µM; with HT29 colon, 8.45 µM. For the same molecule, the TGI was more than 100 µM with IGROV1 ovarian; more than 100 µM in the assay with KM12 colon; 8.88 µM in the assay with MDA-MB-231 breast; 2.81 µM in the assay on MDA-N; more than 30 µM in the assay with NCI-H226 lung; 20.4 µM with SK-MEL-5 melanoma. Further, the values for the TGI in the assay with SNB-75 CNS, in the assay with TK-10 renal and with UACC-62 melanoma were more than 25.9 µM, more than 35.3 µM and more than 25.3 µM, respectively.

Turning to `CSc1n[nH]c2n[nH]c(C)c12`, the TGI with ACHN renal, in the assay with HCT-116 colon, with HL-60(TB) leukemia, in the assay with HOP-62 NSCLC, with HOP-92 NSCLC and in the assay on HT29 colon was more than 100 µM in each case. The TGI with IGROV1 ovarian, with KM12 colon, with MDA-MB-231 breast, with MDA-N, with NCI-H226 lung and with SK-MEL-5 melanoma was more than 100 µM in each case. The TGI in the assay on SNB-75 CNS, in the assay with TK-10 renal and in the assay with UACC-62 melanoma was more than 100 µM in each case.
